Test results from PubChem BioAssay AID256 (DTP/NCI, 2004).
“And” between values parts separate entries of the source, which are not always exact repeats. Equal values may be shown once. Toxic doses and inconclusive results are not listed. How the source made its calls: active means survival T/C of 150% or more; inactive means T/C below 125% in these data.

Test system: CD2F1 mice, L1210 leukemia ip, survival T/C
Experiment: NCI In Vivo Anticancer Drug Screen. Data for tumor model L1210 Leukemia (intraperitoneal) in CD2F1 (CDF1) mice
Settings: higher = longer survival
Summary of the method: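 Transplantable tumor in mice; compound-treated vs vehicle-treated groups. Read-out = treated/control ratio of the measured endpoint.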

[1] = endpoint: mean survival time, dose: 100.0 mg/kg/injection, schedule: Q04DX003 (ip), vehicle: saline
[2] = endpoint: mean survival time, dose: 200.0 mg/kg/injection, schedule: Q04DX003 (ip), vehicle: saline
[3] = endpoint: mean survival time, dose: 400.0 mg/kg/injection, schedule: Q04DX003 (ip), vehicle: saline
[4] = endpoint: mean survival time, dose: 100.0 mg/kg/injection, schedule: Q01DX001 (ip), vehicle: saline
[5] = endpoint: mean survival time, dose: 100.0 mg/kg/injection, schedule: Q01DX009 (ip), vehicle: saline with Tween-80
[6] = endpoint: mean survival time, dose: 100.0 mg/kg/injection, schedule: Q04DX003 (ip), vehicle: saline with Tween-80
[7] = endpoint: mean survival time, dose: 200.0 mg/kg/injection, schedule: Q01DX001 (ip), vehicle: saline
[8] = endpoint: mean survival time, dose: 200.0 mg/kg/injection, schedule: Q01DX009 (ip), vehicle: saline with Tween-80
[9] = endpoint: mean survival time, dose: 200.0 mg/kg/injection, schedule: Q04DX003 (ip), vehicle: saline with Tween-80
[10] = endpoint: mean survival time, dose: 400.0 mg/kg/injection, schedule: Q01DX001 (ip), vehicle: saline
[11] = endpoint: mean survival time, dose: 400.0 mg/kg/injection, schedule: Q04DX003 (ip), vehicle: saline with Tween-80
[12] = endpoint: mean survival time, dose: 100.0 mg/kg/injection, schedule: Q04DX002 (ip), vehicle: saline with Tween-80
[13] = endpoint: mean survival time, dose: 200.0 mg/kg/injection, schedule: Q04DX002 (ip), vehicle: saline with Tween-80
[14] = endpoint: mean survival time, dose: 100.0 mg/kg/injection, schedule: Q01DX001 (ip), vehicle: saline with Tween-80
[15] = endpoint: mean survival time, dose: 200.0 mg/kg/injection, schedule: Q01DX001 (ip), vehicle: saline with Tween-80
[16] = endpoint: mean survival time, dose: 400.0 mg/kg/injection, schedule: Q01DX001 (ip), vehicle: saline with Tween-80
[17] = endpoint: mean survival time, dose: 400.0 mg/kg/injection, schedule: Q04DX002 (ip), vehicle: saline with Tween-80

Measured: T/C

CCn1ncc2ccc(N(CO)CO)cc21
inactive: [1] 103 % of control | [2] 106 % of control | [3] 100 % of control

CC(=O)ON=C1C=CC(=C(C#N)c2ccccc2)C=C1
inactive: endpoint: mean survival time, dose: 50.0 mg/kg/injection, schedule: Q01DX001 (ip), vehicle: saline 96 % of control | endpoint: mean survival time, dose: 50.0 mg/kg/injection, schedule: Q01DX009 (ip), vehicle: saline with Tween-80 97 % of control and 101 % of control | [4] 98 % of control | [5] 98 % of control and 100 % of control | [6] 91 % of control | [7] 95 % of control | [8] 93 % of control and 101 % of control | [9] 95 % of control | [10] 90 % of control | [11] 105 % of control

O=C(Nc1cccc([N+](=O)[O-])c1)c1cc2ccccc2cc1O
inactive: endpoint: mean survival time, dose: 100.0 mg/kg/injection, schedule: Q01DX009 (ip), vehicle: saline 101 % of control | [6] 95 % of control | endpoint: mean survival time, dose: 200.0 mg/kg/injection, schedule: Q01DX009 (ip), vehicle: saline 97 % of control | [9] 95 % of control | endpoint: mean survival time, dose: 400.0 mg/kg/injection, schedule: Q01DX009 (ip), vehicle: saline 98 % of control | [11] 87 % of control

NC(=N\O)/C(N)=N/O.[Cl][Pt][Cl]
inactive: endpoint: median survival time, dose: 3.12 mg/kg/injection, schedule: Q04DX003 (ip), vehicle: saline 100 % of control | endpoint: median survival time, dose: 6.25 mg/kg/injection, schedule: Q04DX003 (ip), vehicle: saline 103 % of control | endpoint: median survival time, dose: 12.5 mg/kg/injection, schedule: Q04DX003 (ip), vehicle: saline 97 % of control | endpoint: median survival time, dose: 25.0 mg/kg/injection, schedule: Q04DX003 (ip), vehicle: saline 103 % of control | endpoint: median survival time, dose: 50.0 mg/kg/injection, schedule: Q04DX003 (ip), vehicle: saline 109 % of control | endpoint: median survival time, dose: 100.0 mg/kg/injection, schedule: Q04DX003 (ip), vehicle: saline 112 % of control | endpoint: median survival time, dose: 200.0 mg/kg/injection, schedule: Q04DX003 (ip), vehicle: saline 123 % of control

CCOC(=O)C(C(=O)OCC)=C1CCC(=O)O1
inactive: [12] 111 % of control | [13] 90 % of control

O=C1NC(=O)C2(CCN(Cc3ccccc3)CC2)N1
inactive: [14] 104 % of control | [15] 101 % of control | [16] 101 % of control

O=c1nc(-c2ccco2)sc(=O)[nH]1
inactive: endpoint: median survival time, dose: 25.0 mg/kg/injection, schedule: Q01DX009 (ip), vehicle: Klucel (hydroxypropylcellulose) (HPC) 100 % of control | endpoint: median survival time, dose: 50.0 mg/kg/injection, schedule: Q01DX009 (ip), vehicle: Klucel (hydroxypropylcellulose) (HPC) 106 % of control | endpoint: median survival time, dose: 100.0 mg/kg/injection, schedule: Q01DX009 (ip), vehicle: Klucel (hydroxypropylcellulose) (HPC) 96 % of control | endpoint: median survival time, dose: 200.0 mg/kg/injection, schedule: Q01DX009 (ip), vehicle: Klucel (hydroxypropylcellulose) (HPC) 102 % of control

CSc1nc(C)cc(N)n1
inactive: [6] 107 % of control | [9] 102 % of control

CC/C=C/CC(=O)NCc1ccc(O)c(OC)c1
inactive: [14] 101 % of control | [15] 103 % of control

CCCCCC(=O)NNc1nc(N)nc2nonc12
inactive: endpoint: mean survival time, dose: 6.25 mg/kg/injection, schedule: Q01DX005 (ip), vehicle: other 109 % of control | endpoint: mean survival time, dose: 12.5 mg/kg/injection, schedule: Q01DX005 (ip), vehicle: other 97 % of control | endpoint: mean survival time, dose: 25.0 mg/kg/injection, schedule: Q01DX005 (ip), vehicle: other 105 % of control | endpoint: mean survival time, dose: 50.0 mg/kg/injection, schedule: Q01DX005 (ip), vehicle: other 97 % of control | endpoint: mean survival time, dose: 100.0 mg/kg/injection, schedule: Q01DX005 (ip), vehicle: other 100 % of control

C[CH2][Pb]([Cl])([CH2]C)[CH2]C
inactive: endpoint: mean survival time, dose: 1.56 mg/kg/injection, schedule: Q01DX009 (ip), vehicle: other 103 % of control | endpoint: mean survival time, dose: 3.12 mg/kg/injection, schedule: Q01DX009 (ip), vehicle: other 100 % of control | endpoint: mean survival time, dose: 6.25 mg/kg/injection, schedule: Q01DX009 (ip), vehicle: other 90 % of control

Cc1sc2ncnc(Cl)c2c1C
inactive: endpoint: mean survival time, dose: 25.0 mg/kg/injection, schedule: Q04DX003 (ip), vehicle: saline with Tween-80 103 % of control | endpoint: mean survival time, dose: 50.0 mg/kg/injection, schedule: Q04DX003 (ip), vehicle: saline with Tween-80 114 % of control | [14] 97 % of control | [6] 94 % of control

Cc1ccc(S(=O)(=O)OC2CC3CCC2C3)cc1 (configuration not stated)
inactive: endpoint: mean survival time, dose: 100.0 mg/kg/injection, schedule: Q04DX003 (ip), vehicle: acetone 105 % of control | endpoint: mean survival time, dose: 200.0 mg/kg/injection, schedule: Q04DX003 (ip), vehicle: acetone 101 % of control | endpoint: mean survival time, dose: 400.0 mg/kg/injection, schedule: Q04DX003 (ip), vehicle: acetone 100 % of control

Cc1cc(=O)c2c(ccc3[nH]c(-c4ccco4)nc32)[nH]1
inactive: [12] 95 % of control | [13] 102 % of control | [17] 91 % of control

CC(=O)SCCNCCOCCC#N
inactive: [5] 97 % of control | [1] 95 % of control | [8] 101 % of control | [2] 101 % of control | endpoint: mean survival time, dose: 400.0 mg/kg/injection, schedule: Q01DX009 (ip), vehicle: saline with Tween-80 95 % of control | [3] 101 % of control

CC(N)(C(=O)O)c1ccccc1 (configuration not stated)
inactive: endpoint: mean survival time, dose: 100.0 mg/kg/injection, schedule: Q01DX001 (ip), vehicle: other 92 % of control and 96 % of control | endpoint: mean survival time, dose: 200.0 mg/kg/injection, schedule: Q01DX001 (ip), vehicle: other 100 % of control and 102 % of control | endpoint: mean survival time, dose: 400.0 mg/kg/injection, schedule: Q01DX001 (ip), vehicle: other 96 % of control and 94 % of control

CC(C)(C)OC(=O)NC(CSSCC(NC(=O)OC(C)(C)C)C(=O)O)C(=O)O (configuration not stated)
inactive: [6] 92 % of control | [9] 92 % of control | [11] 90 % of control

COc1c(C)c2c(c3c1CCC(C)(CCC(=O)O)O3)C(=O)OC2 (configuration not stated)
inactive: [12] 103 % of control | [13] 108 % of control | [17] 100 % of control

CC1=CC=CNC1(N)Br (configuration not stated)
inactive: [4] 100 % of control | [7] 104 % of control | [10] 100 % of control

O=C1OC(=O)c2c1ccc1c(O)cccc21
inactive: [14] 101 % of control | [15] 90 % of control | [16] 108 % of control

N#Cc1ccc(CCl)cc1
inactive: endpoint: mean survival time, dose: 50.0 mg/kg/injection, schedule: Q01DX009 (ip), vehicle: Klucel (hydroxypropylcellulose) (HPC) 98 % of control | endpoint: mean survival time, dose: 100.0 mg/kg/injection, schedule: Q01DX009 (ip), vehicle: Klucel (hydroxypropylcellulose) (HPC) 98 % of control

CC(=O)OC1CC2CCC1(C)C2(C)C (configuration not stated)
inactive: [6] 101 % of control | [9] 95 % of control
